# Columns and labels:
# Assay in all cases: relative viability (nuclei count vs DMSO), 5 days (fraction); higher = more cells survive
# [1] = system: Calu-6
# Method in brief: (§1)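 Dosing by pin tool came one day after lung cancer cell lines were seeded in 1536-well plates, using either one drug or a fixed anchor-drug dose plus five library-drug doses (not always all listed) in √10 steps. After 5 days, nuclei were counted on 4× images. Relative viability is treated-well nuclei count divided by vehicle-well nuclei count, and values are medians of duplicate plates.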
# [2] = system: NCI-H596
# Method in brief: as §1
# [3] = system: A549
# Method in brief: as §1
# [4] = system: NCI-H23
# Method in brief: as §1
# [5] = system: IA-LM
# Method in brief: as §1
# [6] = system: NCI-H1299
# Method in brief: as §1
# [7] = system: EBC-1
# Method in brief: as §1
# [8] = system: NCI-H1703
# Method in brief: as §1
# [9] = system: NCI-H1993
# Method in brief: as §1
smiles,measurement,setting,value
Oc1nc(-c2ccc(C(F)(F)F)cc2)nc2c1CSCC2 [XAV939] + C[C@@H](Oc1cc(-c2cnn(C3CCNCC3)c2)cnc1N)c1c(Cl)ccc(F)c1Cl [Crizotinib] (partner 1 µM),relative viability,[1]; first compound 0.08 µM,0.822
same,relative viability,[1]; first compound 0.253 µM,0.719
same,relative viability,[1]; first compound 0.8 µM,0.7
same,relative viability,[1]; first compound 2.53 µM,0.758
same,relative viability,[2]; first compound 0.08 µM,1.12
same,relative viability,[2]; first compound 0.253 µM,0.955
same,relative viability,[2]; first compound 0.8 µM,1.06
same,relative viability,[2]; first compound 2.53 µM,0.93
same,relative viability,[3]; first compound 0.08 µM,1.07
same,relative viability,[3]; first compound 0.253 µM,0.713
same,relative viability,[3]; first compound 0.8 µM,0.693
same,relative viability,[3]; first compound 2.53 µM,0.633
same,relative viability,[4]; first compound 0.08 µM,0.502
same,relative viability,[4]; first compound 0.253 µM,0.425
same,relative viability,[4]; first compound 0.8 µM,0.436
same,relative viability,[4]; first compound 2.53 µM,0.426
same,relative viability,[5]; first compound 0.08 µM,0.792
same,relative viability,[5]; first compound 0.253 µM,0.876
same,relative viability,[5]; first compound 0.8 µM,0.398
same,relative viability,[5]; first compound 2.53 µM,0.444
same,relative viability,[6]; first compound 0.08 µM,0.94
same,relative viability,[6]; first compound 0.253 µM,0.978
same,relative viability,[6]; first compound 0.8 µM,0.956
same,relative viability,[6]; first compound 2.53 µM,0.958
same,relative viability,[7]; first compound 0.08 µM,0.213
same,relative viability,[7]; first compound 0.253 µM,0.223
same,relative viability,[7]; first compound 0.8 µM,0.165
same,relative viability,[7]; first compound 2.53 µM,0.182
same,relative viability,[8]; first compound 0.08 µM,0.787
same,relative viability,[8]; first compound 0.253 µM,0.621
same,relative viability,[8]; first compound 0.8 µM,0.77
same,relative viability,[8]; first compound 2.53 µM,0.583
same,relative viability,[9]; first compound 0.8 µM,0.85
same,relative viability,[9]; first compound 2.53 µM,0.768
CC1(C)CCC(c2ccc(Cl)cc2)=C(CN2CCN(c3ccc(C(=O)NS(=O)(=O)c4ccc(N[C@H](CCN5CCOCC5)CSc5ccccc5)c(S(=O)(=O)C(F)(F)F)c4)cc3)CC2)C1 [Navitoclax] + CS(=O)(=O)CCNCc1ccc(-c2ccc3ncnc(Nc4ccc(OCc5cccc(F)c5)c(Cl)c4)c3c2)o1 [Lapatinib] (partner 2 µM),relative viability,[1]; first compound 0.005 µM,1.14
same,relative viability,[1]; first compound 0.01581 µM,1.13
same,relative viability,[1]; first compound 0.05 µM,1.05
same,relative viability,[1]; first compound 0.1581 µM,1.04
same,relative viability,[1]; first compound 0.5 µM,1.01
same,relative viability,[2]; first compound 0.005 µM,1.12
same,relative viability,[2]; first compound 0.01581 µM,1.23
same,relative viability,[2]; first compound 0.05 µM,0.955
same,relative viability,[2]; first compound 0.1581 µM,1.28
same,relative viability,[2]; first compound 0.5 µM,1.06
same,relative viability,[3]; first compound 0.005 µM,1.06
same,relative viability,[3]; first compound 0.01581 µM,1.02
same,relative viability,[3]; first compound 0.05 µM,1.07
same,relative viability,[3]; first compound 0.1581 µM,0.945
same,relative viability,[3]; first compound 0.5 µM,0.949
same,relative viability,[4]; first compound 0.005 µM,1.05
same,relative viability,[4]; first compound 0.01581 µM,1.05
same,relative viability,[4]; first compound 0.05 µM,1.11
same,relative viability,[4]; first compound 0.1581 µM,1.05
same,relative viability,[4]; first compound 0.5 µM,1.09
same,relative viability,[5]; first compound 0.005 µM,0.659
same,relative viability,[5]; first compound 0.01581 µM,1.16
same,relative viability,[5]; first compound 0.05 µM,1.06
same,relative viability,[5]; first compound 0.1581 µM,1.02
same,relative viability,[5]; first compound 0.5 µM,0.903
same,relative viability,[6]; first compound 0.005 µM,0.931
same,relative viability,[6]; first compound 0.01581 µM,0.956
same,relative viability,[6]; first compound 0.05 µM,1
same,relative viability,[6]; first compound 0.1581 µM,0.979
same,relative viability,[6]; first compound 0.5 µM,1
same,relative viability,[7]; first compound 0.005 µM,0.181
same,relative viability,[7]; first compound 0.01581 µM,0.2
same,relative viability,[7]; first compound 0.05 µM,0.193
same,relative viability,[7]; first compound 0.1581 µM,0.245
same,relative viability,[7]; first compound 0.5 µM,0.212
same,relative viability,[8]; first compound 0.005 µM,0.928
same,relative viability,[8]; first compound 0.01581 µM,1.18
same,relative viability,[8]; first compound 0.05 µM,1.34
same,relative viability,[8]; first compound 0.1581 µM,1.27
same,relative viability,[8]; first compound 0.5 µM,1.01
same,relative viability,[9]; first compound 0.005 µM,0.849
same,relative viability,[9]; first compound 0.01581 µM,0.855
same,relative viability,[9]; first compound 0.05 µM,0.756
same,relative viability,[9]; first compound 0.1581 µM,0.795
same,relative viability,[9]; first compound 0.5 µM,0.883
C=C1C(=O)O[C@@H](CCCCCCCC)[C@@H]1C(=O)O [C-75] + CS(=O)(=O)CCNCc1ccc(-c2ccc3ncnc(Nc4ccc(OCc5cccc(F)c5)c(Cl)c4)c3c2)o1 [Lapatinib] (partner 2 µM),relative viability,[1]; first compound 0.08 µM,1.03
same,relative viability,[1]; first compound 0.253 µM,1.06
same,relative viability,[1]; first compound 0.8 µM,1.04
same,relative viability,[1]; first compound 2.53 µM,0.894
same,relative viability,[1]; first compound 8 µM,0.925
same,relative viability,[2]; first compound 0.08 µM,1.08
same,relative viability,[2]; first compound 0.253 µM,1.13
same,relative viability,[2]; first compound 0.8 µM,1.07
same,relative viability,[2]; first compound 2.53 µM,0.87
same,relative viability,[2]; first compound 8 µM,1.14
same,relative viability,[3]; first compound 0.08 µM,1.01
same,relative viability,[3]; first compound 0.253 µM,1.1
same,relative viability,[3]; first compound 0.8 µM,0.798
same,relative viability,[3]; first compound 2.53 µM,0.937
same,relative viability,[3]; first compound 8 µM,0.89
same,relative viability,[4]; first compound 0.08 µM,1.16
same,relative viability,[4]; first compound 0.253 µM,1.34
same,relative viability,[4]; first compound 0.8 µM,0.83
same,relative viability,[4]; first compound 2.53 µM,0.851
same,relative viability,[4]; first compound 8 µM,0.546
same,relative viability,[5]; first compound 0.08 µM,0.816
same,relative viability,[5]; first compound 0.253 µM,0.954
same,relative viability,[5]; first compound 8 µM,0.476
same,relative viability,[6]; first compound 0.08 µM,0.971
same,relative viability,[6]; first compound 0.253 µM,1
same,relative viability,[6]; first compound 0.8 µM,0.935
same,relative viability,[6]; first compound 2.53 µM,0.946
same,relative viability,[6]; first compound 8 µM,0.955
same,relative viability,[7]; first compound 0.08 µM,0.259
same,relative viability,[7]; first compound 0.253 µM,0.237
same,relative viability,[7]; first compound 0.8 µM,0.18
same,relative viability,[7]; first compound 2.53 µM,0.243
same,relative viability,[7]; first compound 8 µM,0.224
same,relative viability,[8]; first compound 0.08 µM,1.17
same,relative viability,[8]; first compound 0.8 µM,0.977
same,relative viability,[8]; first compound 2.53 µM,1.17
same,relative viability,[8]; first compound 8 µM,0.888
same,relative viability,[9]; first compound 0.08 µM,0.796
same,relative viability,[9]; first compound 0.253 µM,0.825
same,relative viability,[9]; first compound 0.8 µM,0.807
same,relative viability,[9]; first compound 2.53 µM,0.763
same,relative viability,[9]; first compound 8 µM,0.667

# — the supplement of paper PMC10307832
